Read-outs that look alike come from different tables or passages of the source.
Tests used:
[1] = system: PC-3; experiment: Cell viability, trypan blue exclusion; type: cell-based, human
Procedure: (§1) U-937 (acute myeloid leukemia), RAJI (Burkitt’s lymphoma), PC-3 (prostate cancer), and MDA-MB-231 (breast cancer) cell lines were obtained from the Deutsche Sammlung für Mikroorganismen and Zellkulturen (DSZM, Braunschweig, Germany) and were cultured in RPMI 1640 (Lonza, Verviers, Belgium) complemented with 10% FBS (Lonza, Verviers, Belgium) and 1% antibiotic-antimycotic (Lonza). RPMI1788 (normal B lymphocytes) and KG-1 (acute myeloid leukemia) cell lines were obtained from the American Type Culture Collection (ATCC) and were maintained in RPMI 1640 complemented with 20% FBS and IMDM complemented with 10% FBS, respectively. Cell lines were treated with compounds at the indicated concentrations in the exponential growth phase.
(§2) Proliferation and viability of U-937, KG-1, RAJI, PC-3, MDA-MB-231, RPMI1788, PBMCs, and PHA_PBMCs were assessed by trypan blue exclusion assays at the indicated time points. Nuclear morphology changes associated with apoptosis and necrosis were evaluated by fluorescence microscopy after Hoechst and propidium iodide (PI) staining as previously described.
(§3) IC50 values of compounds against cellular viability were determined by using nonlinear regression fitting curves with GraphPad Prism 8 or CalcuSyn software The t test used for statistical analyses was performed with GraphPad Prism 8. All the tests were one-tailed, and a p value < 0.05 was considered statistically significant.

[2] = system: KG-1; experiment: Cell viability, trypan blue exclusion; type: cell-based, human
Procedure: as §1, §2, §3

[3] = system: U-937; experiment: Cell viability, trypan blue exclusion; type: cell-based, human
Procedure: as §1, §2, §3

[4] = system: MDA-MB-231; experiment: Cell viability, trypan blue exclusion; type: cell-based, human
Procedure: as §1, §2, §3

[5] = system: RAJI; experiment: Cell viability, trypan blue exclusion; type: cell-based, human
Procedure: as §1, §2, §3

[6] = system: methylated CMV promoter-driven luciferase reporter in KG-1 cells; experiment: CMV-luc assay in KG-1 cells; type: cell-based, human; settings: KG-1 CMV-luc
Procedure: The assay was carried out as described by Rilova et al.. The KG-1 cell line was stably transfected with the luciferase firefly (Luc^+ from pGL3 by Promega, Madison, WI, USA) reporter gene under the control of a methylated CMV promoter (from pEGFP-N1 by Clontech) and selected for the maintenance of the methylation of CMV and luciferase expression silencing (KG-1 CMV-luc). The stably integrated KG-1 CMV-luc cells are cultivated in RPMI-1640 medium (Lonza, Strasbourg, France), supplemented with 10% FCS (Lonza, Strasbourg, France) and 0.5 mg/mL of geneticin (Sigma-Aldrich, Saint-Quentin Fallavier, France), under 5% CO2, at 37 °C and seeded at 20,000 cells per well in 96-well plates. After 5 or 24 h of incubation in the presence of compounds or the solvent DMSO, the induction of the promoter is measured by quantification of luciferase with the Brite-lite assay system (PerkinElmer, Villebon-sur-Yvette, France) according to the manufacturer’s protocol. The luminescence is measured on an EnVision™ Multilabel Plate Reader (PerkinElmer, Villebon-sur-Yvette, France), and the data are expressed as fold induction compared to DMSO control. The mean of 2–4 experiments and its standard error are reported.
(§4) Afterwards, MC3353 was tested in KG-1 leukemia cells for its ability to reactivate gene expression in a stably integrated luciferase reporter construction under the control of a CMV promoter inhibited by DNA methylation (CMV-luc assay). After 5 or 24 h of incubation in the presence of drugs at the indicated concentrations, the luciferase signal was measured and normalized to the value of the non-treated cells (Table 2). Since the CMV-luc assay is highly compromised when the tested compounds induce cell death, the cytotoxicity of MC3353 against KG-1 cells at 5 and 24 h was determined in parallel. MC3353 was highly toxic for KG-1 cells after 24 h of treatment starting from a concentration of 1 μM (Additional file 1: Table S1 and indicated in stars in Table 2).

[7] = system: RAJI cells; experiment: Nuclear morphology analysis (Hoechst/PI); type: cell-based, human; settings: 72 h; drastic increase in cell death rate between 0.5 and 1 μM
Procedure: as §2
(§5) Fig. 6 Nuclear morphology analysis in U-937, RAJI, KG-1, and RPMI1788 cells. Cells were treated with increasing doses of MC3353. Upper panels—after 72 h of treatment, the nuclear morphology was analyzed by fluorescence microscopy after Hoechst and PI staining. Pictures are representative of three independent experiments. Lower panels—the results of cell counting are represented as the mean (± SD) of three independent experiments

[8] = system: RPMI1788 (normal B lymphocytes); experiment: Cell viability, trypan blue exclusion; type: cell-based; settings: Homo sapiens, RPMI-1788; 48 h of treatment; normal cells; read-out: IC50 ± SD, cell viability, RPMI1788
Procedure: as §1, §2
IC50 values of compounds against cellular viability were determined by using nonlinear regression fitting curves with GraphPad Prism 8 or CalcuSyn software The t test used for statistical analyses was performed with GraphPad Prism 8. […]

[9] = system: RPMI1788 cells; experiment: Nuclear morphology analysis (Hoechst/PI); type: cell-based; settings: 72 h; starting from 5 μM; normal cells
Procedure: as §2, §5

[10] = system: primary osteosarcoma cell lines; experiment: Growth inhibition in panel of primary osteosarcoma cell lines; type: cell-based; settings: Homo sapiens; range over the osteosarcoma panel
Procedure: To perform osteosarcoma cell growth inhibition experiments, 2 × 10^5 cells/well were plated, and MC3353 (0.1–30 μM) or DAC (0.5 μM) was added after 24 h. Cells were exposed for up to 96 h before being counted by Trypan blue vital cell count (Sigma-Aldrich, Milan, Italy). In parallel, the cells were treated with DMSO-containing medium as a control. The highest final concentration of DMSO in the medium was < 0.005%, and DMSO had no effect on cell growth.
as §3

[11] = system: KG-1 cells; experiment: Antiproliferative activity in KG-1 cells (Table S1); type: cell-based; settings: Homo sapiens, read-out: % inhibition of proliferation, KG-1 cells
Procedure: To determine the antiproliferative activity of MC3353 in KG-1 cells, the cells were seeded at day 0 in a 96-well plate and treated with test compound solutions at a dose range spanning from 3.2 × 10^−9 to 1 × 10^−5 M at days 1, 2, and 3. On day 4, cell viability was assessed using the ATPLite kit (PerkinElmer, Villebon-sur-Yvette, France).
as §4

**Q.** `O=C(Nc1ccc(NC(=O)c2ccc(Nc3ccnc4ccccc34)cc2)cc1)OCc1ccccc1` [MC3353, Benzyl (4-(4-(quinolin-4-ylamino)benzamido)phenyl)carbamate] was tested. Which “Selectivity index (IC50 PBMCs/IC50 cell line), PC-3” value ([1]; 48 h) did it give?
**A.** (9.8)

**Q.** And the “Selectivity index (IC50 PHA_PBMCs/IC50 cell line), PC-3” value ([1]; 48 h)?
**A.** (5.1)

**Q.** What about the “Selectivity index (IC50 RPMI1788/IC50 cell line), PC-3” value ([1]; 48 h) of the same compound?
**A.** (2.7)

**Q.** And the IC50 ([1]; Homo sapiens, PC-3, 48 h of treatment, read-out: IC50 ± SD, cell viability, PC-3)?
**A.** 900 ± 400 nM

**Q.** And the “Selectivity index (IC50 PBMCs/IC50 cell line), KG-1” value ([2]; 48 h)?
**A.** (26.2)

**Q.** And the “Selectivity index (IC50 PHA_PBMCs/IC50 cell line), KG-1” value ([2]; 48 h)?
**A.** (13.5)

**Q.** What about the “Selectivity index (IC50 RPMI1788/IC50 cell line), KG-1” value ([2]; 48 h) of the same compound?
**A.** (7.2)

**Q.** What about the IC50 ([2]; Homo sapiens, KG-1, 48 h of treatment, read-out: IC50 ± SD, cell viability, KG-1) of the same compound?
**A.** 300 nM

**Q.** And the “Selectivity index (IC50 PBMCs/IC50 cell line), U-937” value ([3]; 48 h)?
**A.** (24.0)

**Q.** And the “Selectivity index (IC50 PHA_PBMCs/IC50 cell line), U-937” value ([3]; 48 h)?
**A.** (12.4)

**Q.** And the “Selectivity index (IC50 RPMI1788/IC50 cell line), U-937” value ([3]; 48 h)?
**A.** (6.6)

**Q.** And the IC50 ([3]; Homo sapiens, U-937, 48 h of treatment, read-out: IC50 ± SD, cell viability, U-937)?
**A.** 400 nM

**Q.** And the “Selectivity index (IC50 PBMCs/IC50 cell line), MDA-MB-231” value ([4]; 48 h)?
**A.** (9.7)

**Q.** What about the “Selectivity index (IC50 PHA_PBMCs/IC50 cell line), MDA-MB-231” value ([4]; 48 h) of the same compound?
**A.** (5.0)

**Q.** And the “Selectivity index (IC50 RPMI1788/IC50 cell line), MDA-MB-231” value ([4]; 48 h)?
**A.** (2.6)

**Q.** And the IC50 ([4]; Homo sapiens, MDA-MB-231, 48 h of treatment, read-out: IC50 ± SD, cell viability, MDA-MB-231)?
**A.** 900 ± 700 nM

**Q.** And the “Selectivity index (IC50 PBMCs/IC50 cell line), RAJI” value ([5]; 48 h)?
**A.** (23.1)

**Q.** And the “Selectivity index (IC50 PHA_PBMCs/IC50 cell line), RAJI” value ([5]; 48 h)?
**A.** (11.9)

**Q.** And the “Selectivity index (IC50 RPMI1788/IC50 cell line), RAJI” value ([5]; 48 h)?
**A.** (6.3)

**Q.** And the IC50 ([5]; Homo sapiens, Raji, 48 h of treatment, read-out: IC50 ± SD, cell viability, RAJI)?
**A.** 400 nM

**Q.** What about the “Luciferase expression (fold ± SD)” value ([6]; 0.1 μM, 5 h) of the same compound?
**A.** 1.0 ± 0.05 fold

**Q.** And the “Luciferase expression (fold ± SD)” value ([6]; 0.1 μM, 24 h)?
**A.** 1.1 ± 0.1 fold

**Q.** And the “Luciferase expression (fold ± SD)” value ([6]; 1 μM, 5 h)?
**A.** 5.8 ± 0.9 fold

**Q.** What about the “Luciferase expression (fold ± SD)” value ([6]; 1 μM, 24 h) of the same compound?
**A.** 4.4 ± 3.5 fold

**Q.** What about the “Luciferase expression (fold ± SD)” value ([6]; 5 μM, 5 h) of the same compound?
**A.** 6.7 ± 0.8 fold

**Q.** And the “cell death modality, RAJI” value [7]?
**A.** shift from apoptosis to necrosis

**Q.** And the IC50 [8]?
**A.** 2400 ± 200 nM

**Q.** What about the “cell death modality, RPMI1788” value [9] of the same compound?
**A.** mixed type of cell death induction, mainly necrosis

**Q.** And the IC50 [10]?
**A.** 1100 to 2400 nM

**Q.** And the inhibition at 0.1 µM ([11]; 5h)?
**A.** 5.5%

**Q.** And the inhibition at 0.1 µM ([11]; 24h)?
**A.** 2.9%

**Q.** And the inhibition at 1 µM ([11]; 5h)?
**A.** 17.7%

**Q.** And the inhibition at 1 µM ([11]; 24h)?
**A.** 98.7%

**Q.** And the inhibition at 5 µM ([11]; 5h)?
**A.** 81.2%

**Q.** What about the inhibition at 5 µM ([11]; 24h) of the same compound?
**A.** 100%

**Q.** And the inhibition at 10 µM ([11]; 5h)?
**A.** 96.8%

**Q.** What about the inhibition at 10 µM ([11]; 24h) of the same compound?
**A.** 100%
